Data taken from patent US20250129088A1, “CEREBLON E3 UBIQUITIN LIGASE INHIBITOR” (Gan & Lee Pharmaceuticals Co., Ltd., priority 2022, published 2025).

Assays:
Assay type in all cases: cell-based
[1] = tested on: K562 cells; assay: K562 cell proliferation inhibition, CCK-8; conditions: Homo sapiens, 96 h, K562, 4 days
Description: The complete medium required for K562 cells is IMDM (ATCC, Product number: 30-2005) basal medium containing 10% fetal bovine serum. K562 cells were seeded in a 96-well plate at a density of 7,500 cells/well, and different concentrations of the compound of the present invention and positive control samples Alisertib (source: Bide Pharmaceuticals) and dBET6 (source: Bide Pharmaceuticals) were prepared to treat the cells. The cells were incubated at a 37° C., 5% CO2 cell culture incubator for 4 days.
Cell viability was detected using the CCK-8 kit (Beyotime, Product number: C0040) according to the manufacturer's instructions. According to the inhibition rate, GraphPad Prism software was used to calculate the IC50 value of each compound for 4 days, and the results are shown in Table 11-12.

[2] = tested on: MOLM-13 cells; assay: MOLM-13 cell proliferation inhibition, CCK-8; conditions: Homo sapiens, 96 h, MOLM-13, 4 days
Description: The complete medium required for MOLM-13 cells is 1640 (ATCC, Product number: 30-2001) basal medium containing 20% fetal bovine serum. MOLM-13 cells were seeded in a 96-well plate at a density of 7,500 cells/well, and different concentrations of the compounds of the present invention were prepared to treat the cells at the same time. The cells were incubated in a 37° C., 5% CO2 cell culture incubator for 4 days. Cell viability was detected using the CCK-8 kit (Beyotime, Product number: C0040) according to the manufacturer's instructions. According to the inhibition rate, GraphPad Prism software was used to calculate the IC50 value of each compound for 4 days, and the results are shown in Table 9-10.

[3] = tested on: MV-4-11 cells; assay: MV-4-11 cell proliferation inhibition, CCK-8; conditions: Homo sapiens, MV4-11, 96 h, MV-4-11, 4 days
Description: The complete medium required for MV-4-11 cells is IMDM (ATCC, Product number: 30-2005) basal medium containing 10% fetal bovine serum. MV-4-11 cells were seeded in a 96-well plate at a density of 7,500 cells/well, and different concentrations of the compound of the present invention and positive control samples Alisertib (source: Bide Pharmaceuticals), Palbociclib (source: Bide Pharmaceuticals), Ibrutinib (source Bide Pharmaceuticals) treated cells. The cells were incubated in a 37° C., 5% CO2 cell incubator for 4 days. Cell viability was detected using the CCK-8 kit (Beyotime, Product number: C0040) according to the manufacturer's instructions. According to the inhibition rate, GraphPad Prism software was used to calculate the IC50 value of each compound for 4 days, and the results are shown in Table 6-8.

[4] = Table 12, positive control dBET6
[5] = Table 7, positive control Palbociclib
[6] = Table 11, positive control Alisertib
[7] = Table 6, positive control Alisertib

Cc1nc(Nc2ncc(C(=O)Nc3c(C)cccc3Cl)s2)cc(N2CCN(CCOCCC(=O)N3CCC4(CC3)COc3cc5c(cc3C4)C(=O)N(C3CCC(=O)NC3=O)C5=O)CC2)n1 (stereo not drawn) [PROTAC 10, N-(2-chloro-6-methylphenyl)-2-((6-(4-(2-(3-(7′-(2,6-dioxopiperidin-3-yl)-6′,8′-dioxo-4′,6′,7′,8′-tetrahydro-2′H-spiro[piperidine-4,3′-pyrano[2,3-f]isoindole]-1-yl)-3-oxopropoxy)ethyl)piperazin-1-yl)-2-methylpyrimidin-4-yl)amino)thiazole-5-carboxamide] was tested, and the IC50 [1, 4] was 17 nM and the IC50 ([2]; Table 9) was 1050 nM.
CC(=O)c1c(C)c2cnc(Nc3ccc(N4CCN(CCOCCC(=O)N5CCC6(CCc7cc8c(cc7O6)C(=O)N(C6CCC(=O)NC6=O)C8)CC5)CC4)cn3)nc2n(C2CCCC2)c1=O (stereo not drawn) [PROTAC 42, 3-(1-(3-(2-(4-(6-((6-acetyl-8-cyclopentyl-5-methyl-7-oxo-7,8-dihydropyridone[2,3-d]pyrimidin-2-yl)amino)pyridin-3-yl)piperazin-1-yl)ethoxy)propionyl)-8′-oxo-3′,4′,6′,8′-tetrahydro-7′H-spiro[piperidine-4,2′-pyrano[2,3-f]isoindole]-7′-yl)piperidine-2,6-dione] gave an IC50 [3, 5] of 940 nM and an IC50 ([2]; Table 10) of 830 nM.
Cc1nc(Nc2ncc(C(=O)Nc3c(C)cccc3Cl)s2)cc(N2CCN(CCOCCC(=O)N3CCC4(CC3)COc3cc5c(cc34)C(=O)N(C3CCC(=O)NC3=O)C5=O)CC2)n1 (stereo not drawn) [PROTAC 12, N-(2-chloro-6-methylphenyl)-2-((6-(4-(2-(3-(6-(2,6-dioxopiperidin-3-yl)-5,7-dioxo-6,7-dihydro-2H,5H-spiro[furo[2,3-f]isoindole-3,4′-piperidin]-1′-yl)-3-oxopropoxy)ethyl)piperazin-1-yl)-2-methylpyrimidin-4-yl)amino)thiazole-5-carboxamide] showed an IC50 [1, 4] of 40 nM and an IC50 ([2]; Table 9) of 4770 nM.
For CC(=O)c1c(C)c2cnc(Nc3ccc(N4CCN(CCOCCC(=O)N5CCC6(CC5)COc5cc7c(cc5C6)C(=O)N(C5CCC(=O)NC5=O)C7=O)CC4)cn3)nc2n(C2CCCC2)c1=O (stereo not drawn) [PROTAC 40, 1-(3-(2-(4-(6-((6-acetyl-8-cyclopentyl-5-methyl-7-oxo-7,8-dihydropyridone[2,3-d]pyrimidin-2-yl)amino)pyridin-3-yl)piperazin-1-yl)ethoxy)propionyl)-7′-(2,6-dioxopiperidin-3-yl)-2′H-spiro[piperidine-4,3′-pyrano[2,3-f]isoindole]-6′,8′(4′H,7′H)-dione], the IC50 ([2]; Table 10) was 4870 nM.
Molecule COc1cc(Nc2ncc3c(n2)-c2ccc(Cl)cc2C(c2c(F)cccc2OC)=NC3)ccc1C(=O)O [Alisertib, reference compound] has an IC50 [1, 6] of 3770 nM and an IC50 [3, 7] of 26 nM.
For COc1cc(Nc2ncc3c(n2)-c2ccc(Cl)cc2C(c2c(F)cccc2OC)=NC3)ccc1C(=O)N1CC2(CCc3cc4c(cc3O2)C(=O)N(C2CCC(=O)NC2=O)C4)C1 (stereo not drawn) [PROTAC 4, 3-(1-(4-((9-chloro-7-(2-fluoro-6-methoxyphenyl)-5H-benzo[c]pyrimido[4,5-e]azepine-2-yl)amino)-2-methoxybenzoyl)-8′-oxo-3′,4′,6′,8′-tetrahydro-7′H-spiro[azetidine-3,2′-pyrano[2,3-f]isoindole]-7′-yl)piperidine-2,6-dione], the IC50 [1, 6] was 220 nM and the IC50 [3, 7] was 25 nM.
COc1cc(Nc2ncc3c(n2)-c2ccc(Cl)cc2C(c2c(F)cccc2OC)=NC3)ccc1C(=O)N1CC2(CCc3cc4c(cc3O2)CN(C2CCC(=O)NC2=O)C4=O)C1 (stereo not drawn) [PROTAC 3, 3-(1-(4-((9-chloro-7-(2-fluoro-6-methoxyphenyl)-5H-benzo[c]pyrimido[4,5-e]azepine-2-yl)amino)-2-methoxybenzoyl)-6′-oxo-3′,4′,6′,8′-tetrahydro-7′H-spiro[azetidine-3,2′-pyrano[2,3-f]isoindole]-7′-yl)piperidine-2,6-dione] gave an IC50 [1, 6] of 410 nM and an IC50 [3, 7] of 77 nM.
COc1cc(Nc2ncc3c(n2)-c2ccc(Cl)cc2C(c2c(F)cccc2OC)=NC3)ccc1C(=O)N1CCC2(CCc3cc4c(cc3O2)CN(C2CCC(=O)NC2=O)C4=O)CC1 (stereo not drawn) [PROTAC 1, 3-(1-(4-((9-chloro-7-(2-fluoro-6-methoxyphenyl)-5H-benzo[c]pyrimido[4,5-e]azepine-2-yl)amino)-2-methoxybenzoyl)-6′-oxo-3′,4′,6′,8′-tetrahydro-7′H-spiro[piperidine-4,2′-pyrano[2,3-f]isoindol]-7′-yl)piperidine-2,6-dione] was tested, and the IC50 [1, 6] was 150 nM and the IC50 [3, 7] was 120 nM.
With CC(=O)c1c(C)c2cnc(Nc3ccc(N4CCN(CCOCCC(=O)N5CC6(CCc7cc8c(cc7O6)C(=O)N(C6CCC(=O)NC6=O)C8=O)C5)CC4)cn3)nc2n(C2CCCC2)c1=O (stereo not drawn) [PROTAC 39, 1-(3-(2-(4-(6-((6-acetyl-8-cyclopentyl-5-methyl-7-oxo-7,8-dihydropyridone[2,3-d]pyrimidin-2-yl)amino)pyridin-3-yl)piperazin-1-yl)ethoxy)propionyl)-7′-(2,6-dioxopiperidin-3-yl)-3′,4′-dihydro-6′H-spiro[azetidine-3,2′-pyrano[2,3-f]isoindole]-6′,8′(7′ H)-dione] the IC50 [3, 5] was 12700 nM and the IC50 ([2]; Table 10) was 12400 nM.
Work on CC(=O)c1c(C)c2cnc(Nc3ccc(N4CCN(CCOCCC(=O)N5CCC6(CC5)COc5cc7c(cc56)C(=O)N(C5CCC(=O)NC5=O)C7=O)CC4)cn3)nc2n(C2CCCC2)c1=O (stereo not drawn) [PROTAC 41, 1′-(3-(2-(4-(6-((6-acetyl-8-cyclopentyl-5-methyl-7-oxo-7,8-dihydropyridone[2,3-d]pyrimidin-2-yl)amino)pyridin-3-yl)piperazin-1-yl)ethoxy)propionyl)-6-(2,6-dioxopiperidin-3-yl)-6-hydro-2H,5H-spiro[furo[2,3-f]isoindole-3,4′-piperidine]-5,7-dione] yielded an IC50 [3, 5] of 2160 nM and an IC50 ([2]; Table 10) of 2190 nM.
Molecule CC(=O)c1c(C)c2cnc(Nc3ccc(N4CCN(CCOCCC(=O)N5CC6(CCc7cc8c(cc7O6)C(=O)N(C6CCC(=O)NC6=O)C8)C5)CC4)cn3)nc2n(C2CCCC2)c1=O (stereo not drawn) [PROTAC 44, 3-(1-(3-(2-(4-(6-((6-acetyl-8-cyclopentyl-5-methyl-7-oxo-7,8-dihydropyridone[2,3-d]pyrimidin-2-yl)amino)pyridin-3-yl)piperazin-1-yl)ethoxy)propionyl)-8′-oxo-3′,4′,6′,8′-tetrahydro-7′H-spiro[azetidine-3,2′-pyrano[2,3-f]isoindole]-7′-yl)piperidine-2,6-dione] has an IC50 [3, 5] of 3310 nM and an IC50 ([2]; Table 10) of 1310 nM.
In the case of COc1cc(Nc2ncc3c(n2)-c2ccc(Cl)cc2C(c2c(F)cccc2OC)=NC3)ccc1C(=O)NCCOCCC(=O)N1CCC2(CC1)COc1cc3c(cc12)C(=O)N(C1CCC(=O)NC1=O)C3=O (stereo not drawn) [PROTAC 7, 4-((9-chloro-7-(2-fluoro-6-methoxyphenyl)-5H-benzo[c]pyrimido[4,5-e]azepine-2-yl)amino)-N-(2-(3-(6-(2,6-dioxopiperidin-3-yl)-5,7-dioxo-6,7-dihydro-2H,5H-spiro[furan [2,3-f]isoindole-3,4′-piperidin]-1′-yl)-3-oxopropoxy)ethyl)-2-methoxybenzamide], the IC50 [1, 6] is reported as 1470 nM and the IC50 [3, 7] is reported as 360 nM.
With CC(=O)c1c(C)c2cnc(Nc3ccc(N4CCN(CCOCCC(=O)N5CCC6(CCc7cc8c(cc7O6)CN(C6CCC(=O)NC6=O)C8=O)CC5)CC4)cn3)nc2n(C2CCCC2)c1=O (stereo not drawn) [PROTAC 43, 3-(1-(3-(2-(4-(6-((6-acetyl-8-cyclopentyl-5-methyl-7-oxo-7,8-dihydropyridone[2,3-d]pyrimidin-2-yl)amino)pyridin-3-yl)piperazin-1-yl)ethoxy)propionyl)-6′-oxo-6′,8′-dihydro-3′H,7′H-spiro[piperidine-4,2′-[1,4]dioxino[2,3-f]isoindole]-7′-yl)piperidine-2,6-dione] the IC50 [3, 5] was 2490 nM and the IC50 ([2]; Table 10) was 1870 nM.
CC(=O)c1c(C)c2cnc(Nc3ccc(N4CCN(CCOCCC(=O)N5CC6(CCc7cc8c(cc7O6)CN(C6CCC(=O)NC6=O)C8=O)C5)CC4)cn3)nc2n(C2CCCC2)c1=O (stereo not drawn) [PROTAC 45, 3-(1-(3-(2-(4-(6-((6-acetyl-8-cyclopentyl-5-methyl-7-oxo-7,8-dihydropyridone[2,3-d]pyrimidin-2-yl)amino)pyridin-3-yl)piperazin-1-yl)ethoxy)propionyl)-6′-oxo-3′,4′,6′,8′-tetrahydro-7′H-spiro[azetidine-3,2′-pyrano[2,3-f]isoindole]-7′-yl)piperidine-2,6-dione] was tested, and the IC50 [3, 5] was 4250 nM and the IC50 ([2]; Table 10) was 4340 nM.
